From US20230293629A1, “METHODS FOR ATTENUATING RELEASE OF INFLAMMATORY MEDIATORS AND PEPTIDES USEFUL THEREIN” (BIOMARCK PHARMACEUTICALS LTD., priority 2006, published 2023)
Where a SMILES comes first, the peptide text is derived from it. Where no end group is shown, it is not given here. The star is where a group is joined. Myristoyl = CCCCCCCCCCCCCC(=O)*

System: HL-60 clone 15 cells
Test: PMA-stimulated EPO release from HL-60 clone 15 cells
Format: cell-based, human
Conditions: for % Inhibition EPO: 50 μM test peptide, two hour incubation with 100 nM PMA, HL-60 clone 15 cells
In short: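 HL-60 clone 15 cells were differentiated to an eosinophil-like state with 0.5 mM butyric acid for 5 days. At 2.5×10^6 cells/ml in phenol red-free RPMI, they were preincubated 10 min at 37 °C with peptide, then stimulated with PMA for up to 2 h. Released EPO was measured by TMB oxidation (A450) and given as percentage of total content in triton X-100 lysates.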

Compound: Ac-GAQFSKTAAK [Ac-GAQFSKTAAK]
- % Inhibition EPO: 35.7%

Compound: Ac-GAQFSKTAAKGEAAAERPGEAAVA
- % Inhibition EPO: 33.7%

Compound: CCCCCCCCCCCCCC(=O)NCC(=O)N[C@@H](C)C(=O)N[C@@H](CCC(N)=O)C(=O)N[C@@H](Cc1ccccc1)C(=O)N[C@@H](CO)C(=O)N[C@@H](CCCCN)C(=O)N[C@H](C(=O)N[C@@H](C)C(=O)N[C@@H](C)C(=O)N[C@@H](CCCCN)C(=O)NCC(=O)N[C@@H](CCC(=O)O)C(=O)N[C@@H](C)C(=O)N[C@@H](C)C(=O)N[C@@H](C)C(=O)N[C@@H](CCC(=O)O)C(=O)N[C@@H](CCCNC(=N)N)C(=O)N1CCC[C@H]1C(=O)NCC(=O)N[C@@H](CCC(=O)O)C(=O)N[C@@H](C)C(=O)N[C@@H](C)C(=O)N[C@H](C(=O)N[C@@H](C)C(=O)O)C(C)C)[C@@H](C)O [MANS] (Myristoyl-GAQFSKTAAKGEAAAERPGEAAVA-OH; C-terminus assumed)
- reduction in EPO activity relative to the PMA control reference (10 μM, 1 hour): about 15%
- EPO activity relative to control as 100% (10 μM, 1 hour, PMA control reference about 110%): about 95%
- reduction in EPO activity relative to the PMA control reference (10 μM, 2 hour): about 10%
- EPO activity relative to control as 100% (10 μM, 2 hour, PMA control reference about 145%): about 130%
- % Inhibition EPO: 46.1%
- reduction in EPO activity relative to the PMA control reference (50 μM, 1 hour): about 30%
- EPO activity relative to control as 100% (50 μM, 1 hour, PMA control reference about 110%): about 78%
- reduction in EPO activity relative to the PMA control reference (50 μM, 2 hour): about 50%
- EPO activity relative to control as 100% (50 μM, 2 hour, PMA control reference about 145%): about 70%
- reduction in EPO activity relative to the PMA control reference (100 μM, 1 hour): about 40%
- EPO activity relative to control as 100% (100 μM, 1 hour, PMA control reference about 110%): about 65%
- reduction in EPO activity relative to the PMA control reference (100 μM, 2 hour): about 50%
- EPO activity relative to control as 100% (100 μM, 2 hour, PMA control reference about 145%): about 72%

Compound: CCCCCCCCCCCCCC(=O)NCC(=O)N[C@H](C(=O)N[C@@H](C)C(=O)N1CCC[C@H]1C(=O)N[C@@H](C)C(=O)N[C@@H](C)C(=O)N[C@@H](CCC(=O)O)C(=O)NCC(=O)N[C@@H](C)C(=O)NCC(=O)N[C@@H](C)C(=O)N[C@@H](CCC(=O)O)C(=O)N[C@H](C(=O)N[C@@H](CCCCN)C(=O)N[C@@H](CCCNC(=N)N)C(=O)N[C@@H](C)C(=O)N[C@@H](CO)C(=O)N[C@@H](C)C(=O)N[C@@H](CCC(=O)O)C(=O)N[C@@H](C)C(=O)N[C@@H](CCCCN)C(=O)N[C@@H](CCC(N)=O)C(=O)N[C@@H](C)C(=O)N[C@@H](Cc1ccccc1)C(=O)O)C(C)C)[C@@H](C)O [RNS, reference compound] (Myristoyl-GTAPAAEGAGAEVKRASAEAKQAF-OH; C-terminus assumed)
- % Inhibition EPO: 0%
- effect on PMA-enhanced EPO release (any of the time points or concentrations tested): did not affect
